Experimental data taken from ChEMBL document CHEMBL2434896, “Carbonic anhydrase inhibitors. Synthesis of heterocyclic 4-substituted pyridine-3-sulfonamide derivatives and their inhibition of the human cytosolic isozymes I and II and transmembrane tumor-associated isozymes IX and XII” (Eur J Med Chem, 2013).
The source made the active and inactive calls. No cut-off for these calls is given here.

Experiments:
COLO 205 = test: Growth inhibition of human COLO205 cells at 10 uM after 48 hrs by sulforhodamine B assay; type: functional
OVCAR-5 = test: Growth inhibition of human OVCAR5 cells at 10 uM after 48 hrs by sulforhodamine B assay; type: functional
KM12 = test: Growth inhibition of human KM12 cells at 10 uM after 48 hrs by sulforhodamine B assay; type: functional
A498 = test: Growth inhibition of human A498 cells at 10 uM after 48 hrs by sulforhodamine B assay; type: functional
SK-MEL-28 = test: Growth inhibition of human SK-MEL-28 cells at 10 uM after 48 hrs by sulforhodamine B assay; type: functional, cell-based
HCT-15 = test: Growth inhibition of human HCT15 cells at 10 uM after 48 hrs by sulforhodamine B assay; type: functional; details: HCT-15, 48 h, read-out: GI
HOP-62 = test: Growth inhibition of human HOP62 cells at 10 uM after 48 hrs by sulforhodamine B assay; type: functional
T47D = test: Growth inhibition of human T47D cells at 10 uM after 48 hrs by sulforhodamine B assay; type: functional; details: read-out: GI
SF-539 = test: Growth inhibition of human SF539 cells at 10 uM after 48 hrs by sulforhodamine B assay; type: functional; details: SF-539, 48 h, read-out: GI
Malme-3M = test: Growth inhibition of human MALME-3M cells at 10 uM after 48 hrs by sulforhodamine B assay; type: functional
SR = test: Growth inhibition of human SR cells at 10 uM after 48 hrs by sulforhodamine B assay; type: functional; details: read-out: GI
RPMI-8226 = test: Growth inhibition of human RPMI8226 cells at 10 uM after 48 hrs by sulforhodamine B assay; type: functional; details: RPMI-8226, 48 h, read-out: GI
SF-295 = test: Growth inhibition of human SF295 cells at 10 uM after 48 hrs by sulforhodamine B assay; type: functional; details: SF-295, 48 h, read-out: GI
PC-3 = test: Growth inhibition of human PC3 cells at 10 uM after 48 hrs by sulforhodamine B assay; type: functional; details: PC-3, 48 h, read-out: GI
NCI-H460 = test: Growth inhibition of human NCI-H460 cells at 10 uM after 48 hrs by sulforhodamine B assay; type: functional
BT-549 = test: Growth inhibition of human BT549 cells at 10 uM after 48 hrs by sulforhodamine B assay; type: functional
NCI-H522 = test: Growth inhibition of human NCI-H522 cells at 10 uM after 48 hrs by sulforhodamine B assay; type: functional; details: NCI-H522, 48 h, read-out: GI
IGROV-1 = test: Growth inhibition of human IGROV1 cells at 10 uM after 48 hrs by sulforhodamine B assay; type: functional; details: IGROV-1, 48 h, read-out: GI
NCI/ADR-RES = test: Growth inhibition of human NCI-ADR-RES cells at 10 uM after 48 hrs by sulforhodamine B assay; type: functional
DU-145 = test: Growth inhibition of human DU145 cells at 10 uM after 48 hrs by sulforhodamine B assay; type: functional
TK-10 = test: Growth inhibition of human TK10 cells at 10 uM after 48 hrs by sulforhodamine B assay; type: functional
CAKI-1 = test: Growth inhibition of human CAKI-1 cells at 10 uM after 48 hrs by sulforhodamine B assay; type: functional; details: CAKI-1, 48 h, read-out: GI
SNB-75 = test: Growth inhibition of human SNB75 cells at 10 uM after 48 hrs by sulforhodamine B assay; type: functional
SK-MEL-5 = test: Growth inhibition of human SK-MEL-5 cells at 10 uM after 48 hrs by sulforhodamine B assay; type: functional; details: SK-MEL-5, 48 h, read-out: GI
MDA-MB-435 = test: Growth inhibition of human MDA-MB-435 cells at 10 uM after 48 hrs by sulforhodamine B assay; type: functional; details: MDA-MB-435, 48 h, read-out: GI
SK-OV-3 = test: Growth inhibition of human SKOV3 cells at 10 uM after 48 hrs by sulforhodamine B assay; type: functional
HCC 2998 = test: Growth inhibition of human HCC2998 cells at 10 uM after 48 hrs by sulforhodamine B assay; type: functional
NCI-H226 = test: Growth inhibition of human NCI-H226 cells at 10 uM after 48 hrs by sulforhodamine B assay; type: functional; details: NCI-H226, 48 h, read-out: GI
NCI-H322M = test: Growth inhibition of human NCI-H322M cells at 10 uM after 48 hrs by sulforhodamine B assay; type: functional; details: read-out: GI
HCT-116 = test: Growth inhibition of human HCT116 cells at 10 uM after 48 hrs by sulforhodamine B assay; type: functional; details: HCT-116, 48 h, read-out: GI
786-0 = test: Growth inhibition of human 786-0 cells at 10 uM after 48 hrs by sulforhodamine B assay; type: functional
MCF7 = test: Growth inhibition of human MCF7 cells at 10 uM after 48 hrs by sulforhodamine B assay; type: functional; details: MCF7, 48 h, read-out: GI
SNB-19 = test: Growth inhibition of human SNB19 cells at 10 uM after 48 hrs by sulforhodamine B assay; type: functional
SW-620 = test: Growth inhibition of human SW620 cells at 10 uM after 48 hrs by sulforhodamine B assay; type: functional
LOX IMVI = test: Growth inhibition of human LOXIMVI cells at 10 uM after 48 hrs by sulforhodamine B assay; type: functional; details: read-out: GI
HL-60(TB) = test: Growth inhibition of human HL-60(TB) cells at 10 uM after 48 hrs by sulforhodamine B assay; type: functional; details: HL-60, 48 h, read-out: GI
MDA-MB-231 = test: Growth inhibition of human MDA-MB-231 cells at 10 uM after 48 hrs by sulforhodamine B assay; type: functional; details: MDA-MB-231, 48 h, read-out: GI
MDA-MB-468 = test: Growth inhibition of human MDA-MB-468 cells at 10 uM after 48 hrs by sulforhodamine B assay; type: functional; details: MDA-MB-468, 48 h, read-out: GI
UACC-62 = test: Growth inhibition of human UACC62 cells at 10 uM after 48 hrs by sulforhodamine B assay; type: functional; details: UACC-62, 48 h, read-out: GI
NCI-H23 = test: Growth inhibition of human NCI-H23 cells at 10 uM after 48 hrs by sulforhodamine B assay; type: functional; details: NCI-H23, 48 h, read-out: GI
SN12C = test: Growth inhibition of human SN12C cells at 10 uM after 48 hrs by sulforhodamine B assay; type: functional; details: read-out: GI
SK-MEL-2 = test: Growth inhibition of human SK-MEL-2 cells at 10 uM after 48 hrs by sulforhodamine B assay; type: functional
MOLT-4 = test: Growth inhibition of human MOLT4 cells at 10 uM after 48 hrs by sulforhodamine B assay; type: functional; details: MOLT-4, 48 h, read-out: GI

For `NS(=O)(=O)c1cnccc1N1CCN(c2ccc(Cl)cc2)CC1`, the “growth inhibition (GI)” value (COLO 205) was “inactive”, the “growth inhibition (GI)” value (OVCAR-5) was “inactive” and the “growth inhibition (GI)” value (KM12) was “inactive”. For the same molecule, the “growth inhibition (GI)” value (A498) was “inactive”, the “growth inhibition (GI)” value (SK-MEL-28) was “inactive” and the inhibition of growth at 10 µM (HCT-15) was 5%. For the same molecule, the “growth inhibition (GI)” value (HOP-62) was “inactive”, the inhibition of growth at 10 µM (T47D) was 32% and the inhibition of growth at 10 µM (SF-539) was 8%. The “growth inhibition (GI)” value (Malme-3M) was “inactive”, the inhibition of growth at 10 µM (SR) was 11% and the inhibition of growth at 10 µM (RPMI-8226) was 25%. For the same molecule, the inhibition of growth at 10 µM (SF-295) was 14%, the inhibition of growth at 10 µM (PC-3) was 8% and the “growth inhibition (GI)” value (NCI-H460) was “inactive”. The “growth inhibition (GI)” value (BT-549) was “inactive”, the inhibition of growth at 10 µM (NCI-H522) was 8% and the inhibition of growth at 10 µM (IGROV-1) was 10%. The “growth inhibition (GI)” value (NCI/ADR-RES) was “inactive”, the “growth inhibition (GI)” value (DU-145) was “inactive” and the “growth inhibition (GI)” value (TK-10) was “inactive”. The inhibition of growth at 10 µM (CAKI-1) was 15%, the “growth inhibition (GI)” value (SNB-75) was “inactive” and the inhibition of growth at 10 µM (SK-MEL-5) was 28%. For the same molecule, the inhibition of growth at 10 µM (MDA-MB-435) was 1%, the “growth inhibition (GI)” value (SK-OV-3) was “inactive” and the “growth inhibition (GI)” value (HCC 2998) was “inactive”. For the same molecule, the inhibition of growth at 10 µM (NCI-H226) was 13%, the inhibition of growth at 10 µM (NCI-H322M) was 11% and the inhibition of growth at 10 µM (HCT-116) was 5%. The “growth inhibition (GI)” value (786-0) was “inactive”, the inhibition of growth at 10 µM (MCF7) was 7% and the “growth inhibition (GI)” value (SNB-19) was “inactive”. For the same molecule, the “growth inhibition (GI)” value (SW-620) was “inactive”, the inhibition of growth at 10 µM (LOX IMVI) was 4% and the inhibition of growth at 10 µM (HL-60(TB)) was 1%. For the same molecule, the inhibition of growth at 10 µM (MDA-MB-231) was 7%, the inhibition of growth at 10 µM (MDA-MB-468) was 31% and the inhibition of growth at 10 µM (UACC-62) was 16%. For the same molecule, the inhibition of growth at 10 µM (NCI-H23) was 7%, the inhibition of growth at 10 µM (SN12C) was 5% and the “growth inhibition (GI)” value (SK-MEL-2) was “inactive”. For the same molecule, the inhibition of growth at 10 µM (MOLT-4) was 25%.
